Experimental data published in paper PMC5892879, “Structures of the Mycobacterium tuberculosis GlpX protein (class II fructose-1,6-bisphosphatase): implications for the active oligomeric state, catalytic mechanism and citrate inhibition” (Acta Crystallographica. Section D, Structural Biology, 2018).
“And” between values parts separate entries of the source, which are not always exact repeats. Identical values can stand only once. “Also recorded” adds a separate entry of the source. Like-named read-outs stand apart in the source and are kept apart here.

Key:
MtFBPaseII = target: T1, MtFBPaseII (Mycobacterium tuberculosis, UniProt P9WN21); assay: FBPase activity of wild-type MtFBPaseII, malachite green assay; format: biochemical; details: for IC50: wild-type MtFBPaseII, malachite green assay, fit of triplicate data, standard error reported; for Effect on MtFBPaseII activity (in words): TCA cycle intermediates tested for inhibitory activity
T1 construct: His-tag (N); made in house
Experimental: The FBPase activity of wild-type MtFBPaseII was measured using the malachite green assay (Bondoc et al., 2017[▸]) in the presence of α-ketoglutarate, citrate, isocitrate, malate, malonate and oxaloacetate. Compounds were tested in triplicate at concentrations of 5000, 3000, 2500, 1300, 630, 310 and 160 µM with positive (no compound) and negative (no enzyme) controls in parallel. Fitting was performed with GraphPad Prism (v.7.0b; GraphPad Software, La Jolla, California, USA). The coupled assay (Bondoc et al., 2017[▸]) was used to obtain kinetic data, which were fitted to a nonlinear Michaelis–Menten equation.

EcFBPaseI = system: EcFBPaseI; parameters: method as in Hines et al., 2007; details: in the presence of 5 µM AMP, ref Hines et al., 2007; cited from earlier work
[1] = IC50 values of compounds against MtFBPaseII
[2] = read-out: IC50 values of compounds against MtFBPaseII

T1 sequence (P9WN21 whole entry): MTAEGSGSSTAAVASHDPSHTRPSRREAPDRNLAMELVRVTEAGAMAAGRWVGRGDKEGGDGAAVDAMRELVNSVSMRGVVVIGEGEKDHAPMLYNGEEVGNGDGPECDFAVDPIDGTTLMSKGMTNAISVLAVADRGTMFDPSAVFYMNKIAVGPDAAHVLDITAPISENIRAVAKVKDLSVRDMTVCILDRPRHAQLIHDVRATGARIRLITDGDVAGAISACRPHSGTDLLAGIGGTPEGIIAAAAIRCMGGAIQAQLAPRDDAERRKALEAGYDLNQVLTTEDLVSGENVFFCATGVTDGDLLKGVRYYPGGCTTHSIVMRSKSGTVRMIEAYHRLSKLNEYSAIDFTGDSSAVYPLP

**Q.** For `O=C(O)CC(O)(CC(=O)O)C(=O)O` [Citrate], which IC50 (MtFBPaseII; [1]) is on record?
**A.** Its IC50 is ~2 mM and 2 mM.

**Q.** What about the “Concentration range resulting in activation of the enzyme” value (EcFBPaseI) of the same compound?
**A.** The value was 0.5 to 5 mM.

**Q.** With `O=C(O)CC(C(=O)O)C(O)C(=O)O` (centres unmarked) [Isocitrate] as the compound, how does the “Effect on MtFBPaseII activity (in words)” value (MtFBPaseII) read?
**A.** Its value is “no effect”.

**Q.** And the “Inhibition of MtFBPaseII” value (MtFBPaseII; up to a concentration of 5 mM)?
**A.** The value was “did not inhibit; also recorded: did not have any measureable activity”.

**Q.** With `O=C(O)CC(O)C(=O)O` (centres unmarked) [Malate, malate] as the compound, how does the IC50 (MtFBPaseII; [1]) read?
**A.** Its IC50 is 3.3 ± 0.1 mM.

**Q.** Which “Concentration with a weak effect on the activity of the enzyme” value (MtFBPaseII; MtFBPaseII, Fig. 4) does the source give for `O=C(O)CC(=O)O` [Malonate, malonate] here?
**A.** Its value is 3 to 4 mM.

**Q.** What about the IC50 (MtFBPaseII; [2]) of the same compound?
**A.** Its IC50 is 3.2 ± 0.1 mM.

**Q.** What does the source list for `O=C(O)CC(=O)C(=O)O` [Oxaloacetate]?
**A.** IC50 (MtFBPaseII; [1]): 6.4 ± 0.5 mM; Effect on MtFBPaseII activity (in words) (MtFBPaseII): limited effect

**Q.** For `C=C(OP(=O)(O)O)C(=O)O` [PEP, phosphoenolpyruvate], which “Concentration range resulting in activation of the enzyme” value (EcFBPaseI) is on record?
**A.** Its value is 0.5 to 5 mM.

**Q.** With `O=C(O)CCC(=O)C(=O)O` [α-Ketoglutarate, α-ketoglutarate] as the compound, how does the IC50 (MtFBPaseII; [2]) read?
**A.** Its IC50 is 3.1 ± 0.2 mM.
